Source: patent US20060154871A1, “Peptides” (ReGen Therapeutics PIc, priority 1999, published 2006)

System: rabbits
Test: Serum antibody titre by ELISA against the corresponding synthetic peptide antigen, before and after the 10 week immunisation of rabbits
Assay type: in vivo, rabbit
Conditions: for Titre: (Serum Dilution) Post Immunization R1: rabbit R1, after 10 week immunisation protocol, 200 μg peptide conjugate per inoculation; for Titre: (Serum Dilution) Pre Immunization R1: rabbit R1, pre immunization serum, ELISA with synthetic peptide antigen; for antigenic response: rabbits R1 and R2, summary of Table 6
Description: To each N-terminal end of the synthetic peptides, L-cysteine was attached, and the peptide was formed into a ring so that the cysteine group lay between the N-terminal and the C-terminal ends of the synthetic peptide. This facilitated peptide conjugation with Keyhole Hemolymph (KHL). The shorter peptides (i.e. those containing 9 or fewer amino acids) were artificially elongated with biologically inert amino acids prior to attaching the L-cysteine. This was done in order to facilitate annealing and increase the antigenicity of the shorter peptides.
For immunisation, two young adult rabbits (5-6 months old, weighing 5-6 lbs [2.3-2.7 kg]) were used. Each antigen (i.e., each synthetic peptide) was given subcutaneously and intramuscularly in 0.1 ml injections at ten different sites. The protocol used followed the following sequence:
The level of antibodies in the serum was established by ELISA (enzyme-linked immunosorbent assay) with the corresponding synthetic peptide antigen. This technique involved the following steps: • 1. The antigen was diluted with a 0.1 M bicarbonate buffer (pH 9.0) to yield a 10 μg of antigen/ml solution. A volume of 50 μl of this solution was placed into each microwell of a 96 well plate. • 2. The plates were covered and incubated at 37° C. for 3 hours. • 3. The wells were washed with a coupling buffer and blocked using 200 μl of Pierce standard solution of BSA (bovine serum albumin). • 4. 50 μl of dilutent BSA (0.75% soln.) was pipetted into each well. 50 μl of antibody serum sample diluted 1:100 in dilutent BSA were placed in lane A of each row. • 5. 1:2 serial dilutions were performed moving down the plate. • 6. The plates were covered and incubated at room temperature for 60 minutes. • 7. The plates were washed four times with PBS wash solution. • 8. A volume of 50 μl of goat anti-rabbit IgG (H&L) HRP conjugate at 1:1000 dilution in BSA was pipetted into each well and incubated at room temperature for 60 minutes (H&L=heavy and light chain; HRP=horseradish peroxidase). • 9. The plates were washed four times with PBS wash solution. • 10. A volume of 50 μl of substrate solution 2,2′-azino-bis(3-ethylbenzothiazoline-6-sulfonic acid)-diammonium salt (ABTS available from Pierce, which is used to help visualise the extent of the antibody/antigen reaction) was pipetted into each well and incubated at room temperature for about 2 minutes. • 11. The reaction was stopped by adding 50 μl of 1% SDS (sodium dodecyl sulfate) into each well. • 12. The wells were then read on a dynoplate reader at 405.
The data presented in Table 6 show the serum antibody titers against specific antibodies after the 10 week immunisation protocol.

Row | Substance | Titre: (Serum Dilution) Post Immunization R1 | Titre: (Serum Dilution) Pre Immunization R1 | antigenic response
1 | AFLLYQE [Peptide C-12, β-casein precursor peptide, Casein Position 202-208] | 12800 | – | –
2 | ATFNRYQDDHGEEILKSL [Peptide D-1, annexin precursor peptide, Annexin Position 203-220] | 12800 | 0 | –
3 | DLEMPVLPVEPFPFV [Peptide B-7, Colostrinin peptide (possibly) having β-casein homologue precursor] | 25600 | 0 | –
4 | DPPPPQS [Peptide A-7, Colostrinin peptide of unknown precursor] | 3400 | 0 | significantly lower than expected
5 | DQPPDVEKPDLQPFQVQS [Peptide B-10, Colostrinin peptide (possibly) having β-casein homologue precursor] | 12800 | 0 | –
6 | DSQPPV [Peptide B-4] | 25600 | 0 | –
7 | FPPPK [Peptide B-5] | 12800 | 0 | –
8 | KYKLQPE [Peptide B-2, Colostrinin peptide (possibly) having β-casein homologue precursor] | 25600 | 0 | –
9 | LFFFLPVVNVLP [Peptide B-8, Colostrinin peptide (possibly) having β-casein homologue precursor] | 200 | 0 | significantly lower than expected
10 | LKPFPKLKVEVFPFP [Peptide A-4, Colostrinin peptide of unknown precursor] | 6400 | 0 | –
11 | LQTPQPLLQVMMEPQGD [Peptide A-1, Colostrinin peptide of unknown precursor] | 6400 | 0 | significantly lower than expected
12 | MPQNFYKLPQM [Peptide A-2, Colostrinin peptide of unknown precursor] | 6400 | 0 | –
13 | MQPPPLP [Peptide B-9, Colostrinin peptide (possibly) having β-casein homologue precursor] | 3200 | 0 | –
14 | SEEMP [Peptide B-3] | 25600 | 0 | –
15 | SEQP [Peptide A-5] | 3200 | 0 | –
16 | VLEMKFPPPPQETVT [Peptide A-3, Colostrinin peptide of unknown precursor] | 6400 | 0 | –
17 | VLPPNVG [Peptide B-1, Colostrinin peptide (possibly) having β-casein homologue precursor] | 26500 | 0 | –
18 | VVMEV [Peptide B-6] | 25600 | 0 | –
